Residue numbers refer to the chain shown, from its start. Values joined by “and” are separate entries in the source; they are usually repeats but may differ in a detail not shown here. Equal entries are not always repeated. Where two headings read alike, the source gives them in different places.
Assays:
P450 17A1 R347H variant = molecular target: T1, P450 17A1 R347H variant (Homo sapiens, UniProt P05093, R347H); assay: Substrate-binding spectral titration (type I, ΔA388-A423)
T1 sequence (P05093 1-508 R347H): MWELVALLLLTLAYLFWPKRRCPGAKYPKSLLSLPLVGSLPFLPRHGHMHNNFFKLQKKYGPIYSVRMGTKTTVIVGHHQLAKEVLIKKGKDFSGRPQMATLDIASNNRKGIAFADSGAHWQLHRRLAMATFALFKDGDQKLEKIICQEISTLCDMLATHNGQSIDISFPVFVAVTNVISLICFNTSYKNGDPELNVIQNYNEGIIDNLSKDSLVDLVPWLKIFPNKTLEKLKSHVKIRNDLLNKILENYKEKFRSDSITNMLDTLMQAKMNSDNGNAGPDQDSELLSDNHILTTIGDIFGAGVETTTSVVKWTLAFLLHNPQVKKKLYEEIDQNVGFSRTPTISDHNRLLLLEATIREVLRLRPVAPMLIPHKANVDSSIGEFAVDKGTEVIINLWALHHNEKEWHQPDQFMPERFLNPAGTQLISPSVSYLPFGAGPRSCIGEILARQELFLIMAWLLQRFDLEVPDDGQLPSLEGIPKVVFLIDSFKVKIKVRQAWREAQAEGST
Procedure: (§1) The purified enzymes were diluted in 100 mM potassium phosphate buffer (pH 7.4) and divided in two 1.0-ml glass cuvettes. Spectra (350–500 nm) were recorded using an OLIS-DW2 spectrophotometer (On-Line Instrument Systems) with subsequent additions of the substrate. Differences in the absorbance between the wavelength maximum and minimum were plotted versus the substrate concentration ([44]). Kd values were calculated using nonlinear regression analysis in GraphPad Prism software (GraphPad) and the quadratic equation: Y=B+A/2E[(Kd+E+X)−(Kd+E+X)^2−4EX], set in Prism as: Y = B + (A/2) ∗ (1/E) ∗ ((Kd + E + X)-sqrt((Kd + E + X)^ˆ2 - (4 ∗ E ∗ X))).
(§2) Figure S2. […] Increasing concentrations of substrates were added to the sample and reference cuvettes in each case.

WT P450 17A1 [1] = molecular target: T2, WT P450 17A1 (Homo sapiens, UniProt P05093); assay: as above
T2 sequence (P05093 1-508): T1 sequence (P05093 1-508 R347H) with H347R
Procedure: as §1, §2

P450 17A1 R358Q variant = molecular target: T3, P450 17A1 R358Q variant (Homo sapiens, UniProt P05093, R358Q); assay: as above
T3 sequence (P05093 1-508 R358Q): T1 sequence (P05093 1-508 R347H) with H347R, R358Q
Procedure: as §1, §2

WT P450 17A1 [2] = molecular target: WT P450 17A1 (Homo sapiens, UniProt P05093); assay: Steady-state kinetics of steroid 17α-hydroxylation and lyase reactions, reconstituted system
Procedure: P450 catalytic activity assays to measure steroid hydroxylation and lyase reactions were carried out as described previously ([23], [37], [64]).
The reactions were initiated by adding an NADPH-regenerating system (final concentrations of 15 mM glucose 6-phosphate, 1.5 mM NADP^+, and 1 IU ml^−1 glucose 6-phosphate dehydrogenase) ([75]) and terminated by quenching and extracting with 2.0 ml CH2Cl2. Aliquots of the organic phases were dried and then dissolved in 100 μl of a CH3CN/H2O (1:1, v/v) mixture. […] The extraction procedure was then repeated, and the (Δ^4) reaction products were analyzed in a Waters Acquity UPLC system using a BEH C18 octadecylsilane column (2.1 mm × 100 mm, 1.7 μm). The reaction products were resolved using a mobile phase composed of solvents A (70% CH3OH, 30% H2O, v/v) and B (CH3CN), at a flow rate of 0.2 ml min^−1. The mobile phase linear gradient proceeded as follows: 0 to 1 min, 5% B; 4 min, 30% B; 4.5 min, 40% B; 4.55 to 6.75 min, 95% BA; and 7 to 10 min, 5% B. The reaction products were identified by coelution with commercial standards and quantified by the A243 peak areas. Steady-state kinetic parameters were estimated using nonlinear regression of hyperbolic fits in GraphPad Prism software, with equations used for kcat and the specificity constant kcat/Km ([76]): Y = (ksp ∗ X)/(1 + (ksp ∗ X/kcat)) and then deriving Km by division.
Target sequence in this assay (P05093 whole entry): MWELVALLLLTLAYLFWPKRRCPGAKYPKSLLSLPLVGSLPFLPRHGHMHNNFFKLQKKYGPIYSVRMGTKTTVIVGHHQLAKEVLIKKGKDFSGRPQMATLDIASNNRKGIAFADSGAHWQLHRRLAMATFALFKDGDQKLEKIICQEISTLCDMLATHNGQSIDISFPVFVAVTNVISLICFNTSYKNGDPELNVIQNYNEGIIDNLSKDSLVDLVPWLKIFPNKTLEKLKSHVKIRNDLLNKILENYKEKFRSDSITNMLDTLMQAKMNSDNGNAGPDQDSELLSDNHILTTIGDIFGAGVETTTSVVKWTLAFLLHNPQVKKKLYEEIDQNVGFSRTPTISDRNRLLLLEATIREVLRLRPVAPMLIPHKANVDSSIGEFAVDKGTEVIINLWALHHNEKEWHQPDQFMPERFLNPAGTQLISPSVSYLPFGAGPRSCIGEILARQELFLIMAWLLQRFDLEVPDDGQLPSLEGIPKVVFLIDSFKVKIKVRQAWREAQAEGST
Target sequence in this assay (P00167 whole entry partner): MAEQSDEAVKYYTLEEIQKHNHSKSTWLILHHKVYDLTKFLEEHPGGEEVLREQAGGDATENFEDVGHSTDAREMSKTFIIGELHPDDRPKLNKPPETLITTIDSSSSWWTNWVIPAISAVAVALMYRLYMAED

[3] = Kd of P450 17A1·substrate complex, WT, P450 1.0 µM, quadratic fit

Kd (P450 17A1 R347H variant) [nM]	Kd (WT P450 17A1 [1]; [3])	Kd (P450 17A1 R358Q variant) [nM]	% WT (kcat/Km) (WT P450 17A1 [2]) [%]	Compound	Kd (WT P450 17A1 [1]) [nM]	% WT (kcat/Km) (WT P450 17A1 [2]; lyase reaction (conversion to androstenedione or DHEA), WT) [%]
230 ± 100	~65 nM and 65 nM	260 ± 120	100	CC(=O)[C@H]1CC[C@H]2[C@@H]3CCC4=CC(=O)CC[C@]4(C)[C@H]3CC[C@]12C [Progesterone]	–	–
120 ± 50	140 ± 60 nM	150 ± 60	100	CC(=O)C1CCC2C3CC=C4C[C@@H](O)CC[C@]4(C)C3CC[C@]12C (stereo partly drawn) [Pregnenolone]	–	–

Compound	Kd (P450 17A1 R347H variant) [nM]	Kd (WT P450 17A1 [1]; [3])	Kd (P450 17A1 R358Q variant) [nM]	% WT (kcat/Km) (WT P450 17A1 [2]) [%]	Kd (WT P450 17A1 [1]) [nM]	% WT (kcat/Km) (WT P450 17A1 [2]; lyase reaction (conversion to androstenedione or DHEA), WT) [%]
CC(=O)[C@@]1(O)CCC2C3CC=C4C[C@@H](O)CC[C@]4(C)C3CC[C@@]21C (stereo partly drawn) [17α-OH pregnenolone]	220 ± 100	–	260 ± 120	–	110 ± 50	100
